Test results published in patent US20100137313A1 (ASTRAZENECA AB, priority 2008, published 2010).

Target: S. pneumoniae Topoisomerase IV ATPase (ParE) (Streptococcus pneumoniae serotype 4, UniProt Q59961)
Assay: S. pneumoniae Topoisomerase IV ATPase inhibition
Assay type: biochemical
Conditions: values marked * are an average of two or more data points, read-out: % Inh (13 μM) of S. pneumoniae Topoisomerase IV ATPase
Method in brief: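 S. pneumoniae ParE (1.25 nM) ATPase with 160 μM ATP and 5 μg/ml sheared DNA in pH 8.0 Tris, Mg2+, DTT, Brij-35; phosphate detected by malachite green/molybdate at 650 nm. Normalised to 2% DMSO (0%) and 20 μM EDTA (100%); IC50 from 10 concentrations.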

Sequence of S. pneumoniae Topoisomerase IV ATPase (ParE) (Q59961 whole entry): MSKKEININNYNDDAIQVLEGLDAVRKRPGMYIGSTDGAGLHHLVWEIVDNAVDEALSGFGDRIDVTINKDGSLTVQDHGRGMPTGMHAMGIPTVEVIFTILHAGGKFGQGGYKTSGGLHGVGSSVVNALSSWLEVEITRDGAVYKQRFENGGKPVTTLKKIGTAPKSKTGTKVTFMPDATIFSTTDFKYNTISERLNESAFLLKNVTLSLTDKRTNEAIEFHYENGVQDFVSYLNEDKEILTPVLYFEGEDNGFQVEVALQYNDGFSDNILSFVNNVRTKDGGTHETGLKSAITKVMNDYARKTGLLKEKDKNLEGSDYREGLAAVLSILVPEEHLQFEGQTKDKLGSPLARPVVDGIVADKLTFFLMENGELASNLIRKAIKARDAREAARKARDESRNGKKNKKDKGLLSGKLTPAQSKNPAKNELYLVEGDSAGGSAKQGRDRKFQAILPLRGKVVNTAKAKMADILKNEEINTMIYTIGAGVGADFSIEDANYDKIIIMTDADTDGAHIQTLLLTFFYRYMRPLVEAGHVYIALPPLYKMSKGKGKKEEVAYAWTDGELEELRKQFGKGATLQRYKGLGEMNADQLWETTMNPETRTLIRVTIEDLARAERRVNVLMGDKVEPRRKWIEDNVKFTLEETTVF

SMILES	inhibition at 13 µM [%]
CN1CCC(Oc2ncc(-c3cnc(Nc4ccc(F)c(Cl)c4)nc3-n3ccc(C(F)(F)F)n3)cc2C(=O)O)C1 (stereo not shown) [Example 789, 5-{2-[(3-chloro-4-fluorophenyl)amino]-4-[3-(trifluoromethyl)-1H-pyrazol-1-yl]pyrimidin-5-yl}-2-[(1-methylpyrrolidin-3-yl)oxy]pyridine-3-carboxylic acid]	99
Cc1cc(C(F)(F)F)nn1-c1nc(Nc2ccc(F)c(Cl)c2)ncc1-c1cnc(OC(C)c2ccncc2)c(C(=O)O)c1 (stereo not shown) [Example 791, 5-{2-[(3-chloro-4-fluorophenyl)amino]-4-[5-methyl-3-(trifluoromethyl)-1H-pyrazol-1-yl]pyrimidin-5-yl}-2-[1-(pyridin-4-yl)ethoxy]pyridine-3-carboxylic acid]	97
CC(Oc1ncc(-c2cnc(Nc3ccc(F)c(Cl)c3)nc2-n2ccc(C(F)(F)F)n2)cc1C(=O)O)c1ccncc1 (stereo not shown) [Example 793, 5-{2-[(3-chloro-4-fluorophenyl)amino]-4-[3-(trifluoromethyl)-1H-pyrazol-1-yl]pyrimidin-5-yl}-2-[1-(pyridin-4-yl)ethoxy]pyridine-3-carboxylic acid]	100
Cc1cc(C(F)(F)F)nn1-c1nc(Nc2ccc(F)c(Cl)c2)ncc1-c1cnc(OCCn2ccnc2)c(C(=O)O)c1 [Example 795, 5-{2-[(3-chloro-4-fluorophenyl)amino]-4-[5-methyl-3-(trifluoromethyl)-1H-pyrazol-1-yl]pyrimidin-5-yl}-2-[2-(1H-imidazol-1-yl)ethoxy]pyridine-3-carboxylic acid]	100
O=C(O)c1cc(-c2cnc(Nc3ccc(F)c(Cl)c3)nc2-n2ccc(C(F)(F)F)n2)cnc1OCCn1ccnc1 [Example 797, 5-{2-[(3-chloro-4-fluorophenyl)amino]-4-[3-(trifluoromethyl)-1H-pyrazol-1-yl]pyrimidin-5-yl}-2-[2-(1H-imidazol-1-yl)ethoxy]pyridine-3-carboxylic acid]	100
COc1ncc(-c2cnc(Nc3cc(C)cc(Cl)c3)nc2-n2ccc(C(F)(F)F)n2)cc1C(=O)O [Example 799, 5-{2-[(3-chloro-5-methylphenyl)amino]-4-[3-(trifluoromethyl)-1H-pyrazol-1-yl]pyrimidin-5-yl}-2-methoxypyridine-3-carboxylic acid]	100
COc1ncc(-c2cnc(Nc3cc(C)cc(Cl)c3)nc2-n2ccc(C(F)(F)F)n2)cc1C(=O)NS(C)(=O)=O [Example 800, 5-{2-[(3-chloro-5-methylphenyl)amino]-4-[3-(trifluoromethyl)-1H-pyrazol-1-yl]pyrimidin-5-yl}-2-methoxy-N-(methylsulfonyl)pyridine-3-carboxamide]	99
COc1ncc(-c2cnc(Nc3cc(C)cc(Cl)c3)nc2-n2nc(C(F)(F)F)cc2C)cc1C(=O)O [Example 802, 5-{2-[(3-chloro-5-methylphenyl)amino]-4-[5-methyl-3-(trifluoromethyl)-1H-pyrazol-1-yl]pyrimidin-5-yl}-2-methoxypyridine-3-carboxylic acid]	100
COc1ncc(-c2cnc(Nc3cc(C)cc(Cl)c3)nc2-n2nc(C(F)(F)F)cc2C)cc1C(=O)NS(C)(=O)=O [Example 803, 5-{2-[(3-chloro-5-methylphenyl)amino]-4-[5-methyl-3-(trifluoromethyl)-1H-pyrazol-1-yl]pyrimidin-5-yl}-2-methoxy-N-(methylsulfonyl)pyridine-3-carboxamide]	100
COc1cc(Nc2ncc(-c3cnc(OC)c(-c4n[nH]c(=O)o4)c3)c(-n3nc(C(F)(F)F)cc3C)n2)cc(OC)c1 [Example 805, 5-(5-{2-[(3,5-dimethoxyphenyl)amino]-4-[5-methyl-3-(trifluoromethyl)-1H-pyrazol-1-yl]pyrimidin-5-yl}-2-methoxypyridin-3-yl)-1,3,4-oxadiazol-2(3H)-one]	100
